Data as given in US10098887B2, “Antiviral compounds and methods of use thereof” (Trana Discovery, Inc., priority 2010, dated 2018).

System: interaction between Human tRNA^Lys3 and HIV-1 genomic RNA
Assay: Biochemical HIV-1 tRNA Inhibition Assay (AlphaScreen)
Format: binding
Parameters: key: +: showing some activity; ++: intermediate activity; +++: the highest activity
Conditions: active compounds from high throughput screening, prioritized on IC50
From the text: The methods for detecting binding of the target RNA to the tRNA or the inhibition of such binding may be performed using any method for such detection. For example, the AlphaScreen® assay (Packard Instrument Company, Meriden, Conn.). AlphaScreen® technology is an “Amplified Luminescent Proximity Homogeneous Assay” method utilizing latex microbeads (250 nm diameter) containing a photosensitizer (donor beads), or chemiluminescent groups and fluorescent acceptor molecules (acceptor beads). Upon illumination with laser light at 680 nm, the photosensitizer in the donor bead converts ambient oxygen to singlet-state oxygen. The excited singlet-state oxygen molecules diffuse approximately 250 nm (one bead diameter) before rapidly decaying. If the acceptor bead is in close proximity to the donor bead (i.e., by virtue of the interaction of the target RNA and tRNA fragment), the singlet-state oxygen molecules reacts with chemiluminescent groups in the acceptor beads, which immediately transfer energy to fluorescent acceptors in the same bead. These fluorescent acceptors shift the emission wavelength to 520-620 nm, resulting in a detectable signal. Antagonists of the interaction of the target RNA with the tRNA fragment will thus inhibit the shift in emission wavelength, whereas agonists of this interaction would enhance it.
In the AlphaScreen configuration (FIG. 3) the assay is done in solution using the same RNA as the immobilization assay. The donor and acceptor beads are bound to their respective RNA's. During the screening the RNAs and test drugs/small molecules are incubated together and formation of the complex is measured using the AlphaScreen detection conditions. Utilization of the AlphaScreen assay may allow for the assay to be run at a lower RNA concentration at room temperature, and increase the stability of the complex.
HIV-1 has evolved to use Human tRNA^Lys3 as a primer for initiation of reverse transcription. Therefore, the interaction between tRNA^Lys3 and viral genomic RNA represents a potential novel target for HIV-1 drug development. Based on this hypothesis, a biochemical assay to identify inhibitors of the interaction between Human tRNA^Lys3 and HIV-1 genomic RNA was developed by TRANA Discovery and transferred to Southern Research Institute for high-throughput screening. This assay was developed as a homogeneous amplified luminescent proximity assay using AlphaScreen™ reagents from PerkinElmer. Based on this assay technology, the AlphaScreen™ luminescent signal serves as a mechanism for detecting the interaction between RNA molecules that represent Human tRNA^Lys3 and HIV-1 genomic RNA. The inhibition of the interaction between these RNA molecules by test compounds is detected as a decrease in the AlphaScreen™ luminescent signal.
A preliminary 15,000 compound screen (NINDS Diversity Set) was previously completed and the results were reported through NIAID contract N01-AI-70042. For the results described herein, a 101,000 compound library that was purchased from ChemBridge for the NIAID TAACF program was used. This library was carefully selected for diversity and minimal similarity to the 100,000 compound NINDS library, which is also planned to be screened using the TRANA Discovery Biochemical HIV-1 tRNA Inhibition Assay. The compounds were screened at a concentration of 12.5 μg/mL (first 3 batches) or 25 μg/mL (fourth and final batch).

SMILES | Activity
Cc1cccc(CNc2ccc3c(c2)OCO3)c1 [1,3-benzodioxol-5-yl(3-methylbenzyl)amine] | +
O=C1c2ccccc2C(=O)c2c1cccc2N1CCCC1 [1-(1-pyrrolidinyl)anthra-9,10-quinone] | ++
CC(=NNc1ccccc1[N+](=O)[O-])c1ccco1 [1-(2-furyl)ethanone (2-nitrophenyl)hydrazone] | +
O=C1NC(=S)N(c2cccc(Cl)c2)C(=O)C1=Cc1ccco1 [1-(3-chlorophenyl)-5-(2-furylmethylene)-2-thioxodihydro-4,6(1H,5H)-pyrimidinedione] | +
Cc1cccc(N2C(=O)C(=Cc3cccn3C)C(=O)NC2=S)c1 [1-(3-methylphenyl)-5-[(1-methyl-1H-pyrrol-2-yl)methylene]-2-thioxodihydro-4,6(1H,5H)-pyrimidinedione] | ++
O=C1NC(=S)N(c2ccc(Cl)cc2)C(=O)C1=Cc1ccco1 [1-(4-chlorophenyl)-5-(2-furylmethylene)-2-thioxodihydro-4,6(1H,5H)-pyrimidinedione] | +
Cn1cccc1C=C1C(=O)NC(=S)N(c2ccc(Cl)cc2)C1=O [1-(4-chlorophenyl)-5-[(1-methyl-1H-pyrrol-2-yl)methylene]-2-thioxodihydro-4,6(1H,5H)-pyrimidinedione] | +
O=C1NC(=S)N(c2ccc(Cl)cc2)C(=O)C1=Cc1ccc([N+](=O)[O-])o1 [1-(4-chlorophenyl)-5-[(5-nitro-2-furyl)methylene]-2-thioxodihydro-4,6(1H,5H)-pyrimidinedione] | +
CCC(=NNc1ccccc1[N+](=O)[O-])c1ccc(O)cc1 [1-(4-hydroxyphenyl)-1-propanone (2-nitrophenyl)hydrazone] | ++
COc1ccc(N2CCN(c3cc(Cl)ccc3[N+](=O)[O-])CC2)cc1 [1-(5-chloro-2-nitrophenyl)-4-(4-methoxyphenyl)piperazine] | +
CN(C)c1cccc2c1C(=O)c1ccccc1C2=O [1-(dimethylamino)anthra-9,10-quinone] | ++
CC1(C)CC(Nc2cccc3c2C(=O)c2ccccc2C3=O)CC(C)(C)N1 [1-[(2,2,6,6-tetramethyl-4-piperidinyl)amino]anthra-9,10-quinone] | +
Nc1c(Cl)cc(N2CCCC2)c2c1C(=O)c1ccccc1C2=O [1-amino-2-chloro-4-(1-pyrrolidinyl)anthra-9,10-quinone] | +
Cc1ccc(N2CCCCC2)c2c1C(=O)c1ccccc1C2=O [1-methyl-4-(1-piperidinyl)anthra-9,10-quinone] | ++
Cc1ccc(Nc2cc(C)c(O)c(C)c2)cc1 [2,6-dimethyl-4-[(4-methylphenyl)amino]phenol] | ++
O=C1C(Cl)=C(NCc2ccccc2)C(=O)c2ccccc21 [2-(benzylamino)-3-chloronaphthoquinone] | +
Cc1cccc(NC2=C(N(C)C)C(=O)c3ccccc3C2=O)c1 [2-(dimethylamino)-3-[(3-methylphenyl)amino]naphthoquinone] | ++
Cc1cccc(NC2=C(NCCO)C(=O)c3ccccc3C2=O)c1 [2-[(2-hydroxyethyl)amino]-3-[(3-methylphenyl)amino]naphthoquinone] | +
Cc1ccccc1NC1=C(N2CCOCC2)C(=O)c2ccccc2C1=O [2-[(2-methylphenyl)amino]-3-(4-morpholinyl)naphthoquinone] | ++
O=C1C(Nc2ccc(F)c(F)c2)=C(N2CCOCC2)C(=O)c2ccccc21 [2-[(3,4-difluorophenyl)amino]-3-(4-morpholinyl)naphthoquinone] | +

SMILES | Activity
O=C1C(Nc2cc(F)cc(F)c2)=C(N2CCOCC2)C(=O)c2ccccc21 [2-[(3,5-difluorophenyl)amino]-3-(4-morpholinyl)naphthoquinone] | ++
O=C1C(Nc2cccc(Cl)c2)=C(N2CCOCC2)C(=O)c2ccccc21 [2-[(3-chlorophenyl)amino]-3-(4-morpholinyl)naphthoquinone] | ++
O=C1C(Nc2cccc(F)c2)=C(N2CCCC2)C(=O)c2ccccc21 [2-[(3-fluorophenyl)amino]-3-(1-pyrrolidinyl)naphthoquinone] | ++
O=C1C(Nc2cccc(O)c2)=C(N2CCCCC2)C(=O)c2ccccc21 [2-[(3-hydroxyphenyl)amino]-3-(1-piperidinyl)naphthoquinone] | +
COc1cccc(NC2=C(N3CCCCC3)C(=O)c3ccccc3C2=O)c1 [2-[(3-methoxyphenyl)amino]-3-(1-piperidinyl)naphthoquinone] | ++
COc1cccc(NC2=C(N3CCCC3)C(=O)c3ccccc3C2=O)c1 [2-[(3-methoxyphenyl)amino]-3-(1-pyrrolidinyl)naphthoquinone] | ++
COc1cccc(NC2=C(N3CCOCC3)C(=O)c3ccccc3C2=O)c1 [2-[(3-methoxyphenyl)amino]-3-(4-morpholinyl)naphthoquinone] | ++
Cc1cccc(NC2=C(N3CCCC3)C(=O)c3ccccc3C2=O)c1 [2-[(3-methylphenyl)amino]-3-(1-pyrrolidinyl)naphthoquinone] | ++
Cc1cccc(NC2=C(N3CCOCC3)C(=O)c3ccccc3C2=O)c1 [2-[(3-methylphenyl)amino]-3-(4-morpholinyl)naphthoquinone] | ++
Cc1ccc2c(C)nc(Nc3nc(C)cc(O)n3)nc2c1 [2-[(4,7-dimethyl-2-quinazolinyl)amino]-6-methyl-4-pyrimidinol] | +
CC(=O)c1ccc(NC2=C(N3CCCC3)C(=O)c3ccccc3C2=O)cc1 [2-[(4-acetylphenyl)amino]-3-(1-pyrrolidinyl)naphthoquinone] | ++
O=[N+]([O-])c1ccc(Nc2ccccc2O)c2nonc12 [2-[(7-nitro-2,1,3-benzoxadiazol-4-yl)amino]phenol] | ++
Cc1ccccc1NC1=C(N)C(=O)c2ccccc2C1=O [2-amino-3-[(2-methylphenyl)amino]naphthoquinone] | +
O=C(NN1C(=O)C(=Cc2ccc(O)c(O)c2)SC1=S)c1ccccc1Br [2-bromo-N-[5-(3,4-dihydroxybenzylidene)-4-oxo-2-thioxo-1,3-thiazolidin-3-yl]benzamide] | +
CN(C)C1=C(Cl)C(=O)c2ccccc2C1=O [2-chloro-3-(dimethylamino)naphthoquinone] | ++
CC(C)NC1=C(Cl)C(=O)c2ccccc2C1=O [2-chloro-3-(isopropylamino)naphthoquinone] | +
O=[N+]([O-])c1ccccc1NN=Cc1ccc(O)c(O)c1 [3,4-dihydroxybenzaldehyde (2-nitrophenyl)hydrazone] | ++
C=CCN1C(=O)C(=Cc2cc(Cl)cc(Cl)c2O)SC1=S [3-allyl-5-(3,5-dichloro-2-hydroxybenzylidene)-2-thioxo-1,3-thiazolidin-4-one] | +
NN1C(=O)C(=Cc2ccc(O)c(O)c2)SC1=S [3-amino-5-(3,4-dihydroxybenzylidene)-2-thioxo-1,3-thiazolidin-4-one] | +
CCCCOc1cccc(C(=O)NC(=S)Nc2ccc(N(C)C)cc2)c1 [3-butoxy-N-({[4-(dimethylamino)phenyl]amino}carbonothioyl)benzamide] | +
